Assay results from patent publication US20020137715A1, “Blocking Sp1 transcription factor broadly inhibits extracellular matrix gene expression in vitro and in vivo: implications for the treatment of tissue fibrosis” (priority 2001, published 2002).

Experiments:
[1] = system: human dermal fibroblasts; type: cell-based
[2] = system: COL1A2 promoter; test: Decoy oligonucleotides on COL1A2/CAT promoter activity in dermal fibroblasts (FIG. 5A); type: cell-based, human; conditions: −3500COL1A2/CAT, 24 h; for decrease of COL1A2 promoter activity: various amounts added to culture medium
Description: (§1) FIG. 5. Decoy Sp1 oligonucleotides inhibit COL1A2 promoter activity in vitro and in vivo. A, Confluent human dermal fibroblast cultures are transfected with 5 μg of −500COL1A2/CAT reporter gene construct. After glycerol shock, increasing amounts (2, 5, 10 μg) of Sp1 (open bars) or mSp1 (hatched bars) oligonucleotides are added to the culture medium. Forty hours later, CAT activity is determined and compared to that of cultures without oligonucleotides (closed bar). Relative promoter activity (mean±SD) of three separate experiments performed in duplicate is presented. B, Four transgenic mice carrying 17 kb of mouse COL1A2 promoter linked to the luciferase gene in their genome are injected subcutaneously at distant sites (approx. 2 cm apart) with 15 μg of either Sp1 (open bar) or mSp1 (hatched bar) oligonucleotides in 25 μl of H2O. After a 30-hr incubation, animals are sacrified and luciferase activity is determined in the skin surrounding the injection sites using identical amounts of protein extracts (40 μg). A non-injected skin area is used as control (solid bar).
Transient cell transfection and CAT assays. Transient cell transfections are performed with the calcium phosphate/DNA co-precipitation procedure. CAT activity is measured using [^14C]chloramphenicol as substrate (Gorman et al, Mol Cell Biol 2: 1044-1051, 1982) followed by thin layer chromatography and quantitation with a phosphorimager.
Decoy oligonucleotides. In some in vitro experiments decoy double-stranded oligonucleotides are used in an attempt to interfere with Sp1 binding to its cognate cis-elements within the COL1A2 promoter. […] 24 h later, CAT activity, representing promoter activity, is determined.
Decoy Sp1 oligonucleotides inhibit COL1A2 promoter activity in vitro and in vivo. Since Sp1 is fundamental for high expression of several ECM genes, short oligonucleotides bearing a consensus Sp1 binding sequence are analyzed for their efficacy as decoys to decrease collagen promoter activity. […] Promoter activity is determined 24 h later. […]

[3] = system: mouse COL1A2 promoter; test: Decoy oligonucleotides in COL1A2/luciferase transgenic mice (FIG. 5B); type: in vivo; conditions: 15 μg intradermally; COL1A2/lux transgenic mice; 24 hours; vs control skin
Description: as §1, with “B, Four transgenic mice carrying 17 kb of mouse COL1A2 promoter linked to the luciferase gene in their genome are injected subcutaneously at distant sites (approx. 2 cm apart) with 15 μg of either Sp1 (open bar) or mSp1 (hatched bar) oligonucleotides in 25 μl of H2O.” left out, “A non-injected skin area is used as control (solid bar).” left out
Treatment of transgenic mice. […] Luciferase activity using identical amounts of extracted proteins is determined with a commercial assay kit (Promega).
Next, decoy Sp1 experiments are performed in a transgenic mouse model in which 17 kb of the mouse COL1A2 promoter drives the expression of the luciferase gene. […] Luciferase activity is determined 24 hours later in the skin region surrounding the injections. […]

[4] = molecular target: Sp1 (Homo sapiens, UniProt P08047); test: EMSA binding of Sp1 to oligonucleotide; conditions: EMSA experiments
Description: Electrophoresis mobility shift assays (EMSA). A 22-mer consensus Sp1 oligonucleotide 5′-[…]-3′ was used as a probe to determine Sp1/DNA interactions. For supershift experiments, nuclear extracts (5 μg) are incubated for 2 h on ice with an anti-Sp1 antibody (Santa Cruz Biotechnologies, Santa Cruz, Calif.) prior to the binding reactions. Binding mixtures are separated electrophoretically on native 4% acrylamide gels, as described previously (Vindevoghel et al, 1997).
Decoy Sp1 oligonucleotides inhibit COL1A2 promoter activity in vitro and in vivo. Since Sp1 is fundamental for high expression of several ECM genes, short oligonucleotides bearing a consensus Sp1 binding sequence are analyzed for their efficacy as decoys to decrease collagen promoter activity. For this purpose. two approaches are used. First, human dermal fibroblasts are transfected with the −3500COL1A2/CAT construct, and various amounts of either wild-type or mutant Sp1 double-stranded oligonucleotides (SEQ. ID. NO:2 and SEQ. ID. NO: 3. respectively) are added to the culture medium. Promoter activity is determined 24 h later. […] Maximal inhibition (55%) is observed with addition of […] of Sp1 oligonucleotide.

[5] = system: COL7A1 promoter; test: Decoy oligonucleotides on COL7A1 promoter activity; type: cell-based, human; conditions: compared with COL1A2 promoter

Chain of Sp1 (P08047 whole entry): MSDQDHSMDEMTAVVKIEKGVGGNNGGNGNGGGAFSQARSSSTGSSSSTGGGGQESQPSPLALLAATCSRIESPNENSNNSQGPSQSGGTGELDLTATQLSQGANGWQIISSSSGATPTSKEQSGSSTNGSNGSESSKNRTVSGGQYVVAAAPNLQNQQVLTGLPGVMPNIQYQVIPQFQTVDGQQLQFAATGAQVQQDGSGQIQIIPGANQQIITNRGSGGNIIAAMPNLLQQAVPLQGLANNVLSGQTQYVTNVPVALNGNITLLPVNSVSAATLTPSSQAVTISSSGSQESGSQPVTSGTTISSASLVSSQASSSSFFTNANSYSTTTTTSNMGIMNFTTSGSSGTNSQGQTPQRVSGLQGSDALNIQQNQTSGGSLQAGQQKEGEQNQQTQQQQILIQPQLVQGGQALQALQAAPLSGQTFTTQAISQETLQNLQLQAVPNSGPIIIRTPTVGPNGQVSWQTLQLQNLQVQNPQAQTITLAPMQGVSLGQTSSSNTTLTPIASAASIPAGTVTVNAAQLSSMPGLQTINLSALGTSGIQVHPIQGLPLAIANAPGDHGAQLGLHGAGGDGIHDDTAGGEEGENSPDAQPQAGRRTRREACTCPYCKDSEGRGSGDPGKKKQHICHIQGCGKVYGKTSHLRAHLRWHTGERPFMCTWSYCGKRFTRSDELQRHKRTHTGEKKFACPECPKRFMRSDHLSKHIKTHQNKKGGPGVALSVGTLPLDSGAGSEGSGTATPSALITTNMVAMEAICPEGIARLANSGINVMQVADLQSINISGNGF

| Substance | cellular toxicity [1] | decrease of COL1A2 promoter activity [2] | reduction of COL1A2 promoter activity (luciferase activity in skin) [3] | binding of Sp1 to the oligonucleotide's Sp1 binding site [4] | inhibition of COL7A1 promoter [5] | Maximal inhibition of COL1A2 promoter activity ([2]; 15 μg/plate) |
| --- | --- | --- | --- | --- | --- | --- |
| mSp1: mutant double-stranded oligonucleotide used as a control, 5′-ATTCGATCGTAGCGATGCGAGC-3′ (double-stranded, further chemistry not given here) [reference compound] | No cellular toxicity | not | no effect | incapable of binding Sp1 | – | – |
| Sp1 oligonucleotide: 22-mer consensus Sp1 double-stranded decoy oligonucleotide, 5′-ATTCGATCGGGGCGGGGCGAGC-3′ (double-stranded, further chemistry not given here) | No cellular toxicity | efficiently decreases COL1A2 promoter activity in a dose-dependent manner | about 70% | – | equally inhibited | 55% |
